From a melting point compilation (Tetko et al.; mined from patent text by program, amines drawn as free bases though some values may be those of a salt)

SMILES | melting point
COc1cc2c(cc1OC)CCCC(C(=O)N1CCN(C(=O)c3cc(OC)c(OC)c(OC)c3)C(C(=O)N(C)C)C1)=C2 (stereo not drawn) | 177 to 178 °C
CCOC(=O)c1cn(-c2cc(NC=O)c(F)cc2F)c2c(F)c(F)c(F)c(NCc3ccccc3)c2c1=O | 151 to 156 °C
O=C1N(O)CC12CCOc1cc(Cl)c(Cl)cc12 (stereo not drawn) | 157 to 158 °C
O=C(NCCCc1ccccc1)c1ccc2c(c1)C(Cl)(Cl)c1cc(C(=O)NCCCc3ccccc3)ccc1-2 | 165 to 167 °C
CC(C)CN(CC(C)C)C(=O)c1ccc(F)c([N+](=O)[O-])c1 | 47 °C
CCCc1nc2c(N)nc3ccccc3c2n1CCOCCCS(C)(=O)=O | 149 to 151 °C
CC(C)c1ncc(CN2C(=O)C3(COc4cc5c(cc43)OCO5)c3ccccc32)o1 (stereo not drawn) | 75 to 77 °C
CN1Cc2c(C(=O)OC(C)(C)C)ncn2-c2ccccc2C1=S | 207 to 208 °C
COc1cc(C(C)(C)C(N)=O)cc2c1OC(C)(C)C2 | 112 to 113 °C
O=C(O)[C@H]1CCCN1C(=O)CCS | 68 to 70 °C
CC(C)NCc1ccc(Cn2ccc(OCc3ccc(F)cc3F)c(Cl)c2=O)cc1 | 146 to 151 °C
O=C1CN2CCOC2(c2ccccc2F)c2cc(I)ccc2N1CCO (stereo not drawn) | 160 to 165 °C
Cc1ccc2c(C(=O)O)cn(C(C)C)c2c1 | 185 to 186 °C
COc1ccc(P2(=O)c3ccccc3CN2c2ccccc2)c(OC)c1 (stereo not drawn) | 173 to 175 °C
CN(C)CC#CC1=CC[N+]([O-])=C(c2ccccc2)c2cc(Cl)ccc21 | 121 to 123 °C
CCCNCc1nc(-c2ncn3c2[C@@H]2CCN2C(=O)c2c(Cl)cccc2-3)no1 | 237 to 239 °C
CN(C)S(=O)(=O)c1c(S(N)(=O)=O)ccn1C | 146 to 148 °C
COc1cc(C)c(C(=O)c2ccc(OCc3nc(-c4ccccc4)oc3C)cc2)c(O[C@H](C)C(=O)O)c1 | 122 to 123 °C
CC1CCCN1CCCN1CCN(CCN2CCCC2)C1=C(C#N)C#N (stereo not drawn) | 95 to 96 °C
CCCCC(=NNC(N)=S)OCC | 73 to 74.5 °C
O=c1[nH]c2c(Cl)cccc2c(=O)n1CCCN1CC=C(c2cccc(Cl)c2)CC1 | 210 to 215 °C

SMILES | melting point
COc1cc(CBr)c(OC)cc1/C=C/c1cc(OC)c(CBr)cc1OC | 165 to 167 °C
Cn1ncc2c1SSSSS2 | 57 to 60 °C
O=[N+]([O-])c1ccc(NS(=O)(=O)C(F)(F)F)c(Oc2ccc3ccccc3c2)c1 | 117 to 120 °C
Cc1nc2scc(C)n2c(=O)c1CCN1CCC(Nc2nc3ccccc3n2Cc2ccc(F)cc2)CC1 | 141 °C
COC(=O)c1c(C(=O)OC)c(-c2ccc(OC)c(OC)c2)c2c(OC)c(OC)c(OC)cc2c1O | 178 to 179 °C
CCCCCCCCCCCCCCCCCCOc1ccc2ccccc2c1 | 64 to 68 °C
CC(C)(C)[Si](C)(C)O[C@H]1OC[C@@H](n2cnc3cc(Cl)c(Cl)cc32)[C@H](O)[C@@H]1O | 128 to 130 °C
CC(NC(=O)CCCCCCCCC#CC#CCCCCCCCCC(=O)NC(C)c1ccccc1)c1ccccc1 (stereo not drawn) | 87.5 to 89 °C
CC(C)Sc1cc([Si](C)(C)C)oc1C(=O)O | 181 to 183 °C
COC(=O)c1oc2ccc(OC)cc2c1OC(C)C | 55 to 63 °C
COc1cc(OC)nc(Sc2c([N+](=O)[O-])nc(C)n2C)n1 | 228 to 230 °C
CCC(OC)(c1cccc(OCc2ccc3c(-c4ccoc4)cc(C#N)cc3c2)c1)c1nccs1 (stereo not drawn) | 156 to 157 °C
Cc1ccc2nc3c(nc2c1)SC(=C(C#N)C#N)S3 | 265 to 267 °C
CCN(CC)c1c(Cl)cc(-n2c(C(F)(F)F)nn(C)c2=S)cc1Cl | 128 to 130 °C
O=S1(=O)N=CN(CCF)c2cc(Cl)c(Cl)cc21 | 233 to 234 °C
CCN(CC)C(=O)C(Cl)=C(Cl)C(=O)O | 154 to 155 °C
C[C@](O)(COc1ccc(C#N)cc1)C(=O)Nc1ccc(C#N)c(C(F)(F)F)c1 | 92 to 94 °C
COc1nc(Cl)cc2nc(S(=O)(=O)Nc3ccn(C)n3)nn12 | 185 to 187 °C
Nc1nc(-n2cc(C(=O)O)c(=O)c3cc(F)c(F)c(Cl)c32)ccc1F | 232 to 235 °C
CCOC(=O)CCNC(=O)C(Cc1ccc(-c2ccccc2)cc1)N(CP(=O)(O)O)C(OC(=O)Cc1ccccc1)C(C)C (stereo not drawn) | 148 to 150 °C

Further lines, results first:

melting point | SMILES
97 to 99 °C | COc1ccc2c(c1)C(CC#N)C(=O)CC2 (stereo not drawn)
115 to 120 °C | O=C(O)c1ccc(=O)n(-c2ccccc2)c1
57 to 59 °C | CCCc1c(OCCCO)ccc(C(C)=O)c1O
107 to 110 °C | COc1ccc(C(=O)Nc2ccccc2CCCC2CCCCN2C)cc1 (stereo not drawn)
> 106 °C | CCCCc1nn(Cc2ccccc2C(=O)O)c(=O)n1Cc1ccc(-c2ccccc2-c2nnn[nH]2)cc1
268 to 270 °C | CCn1cc(C(=O)O)c(=O)c2cc(F)c(N3CCSC3)nc21
> 310 °C | CS(=O)(=O)c1ccc2[nH]c(=O)c(C#N)cc2c1
301 to 304 °C | CS(=O)(=O)c1ccc2cc(C(=O)O)ccc2c1
240 to 242 °C | O=C1CC(c2cccc(-c3nc(CO)co3)c2)=Nc2ccc(-n3cccc3)cc2N1
188 °C | CCCCCCCCCCCCCCCCCC(=O)Nc1ccc(NC(=O)NS(=O)(=O)c2ccc(OC)cc2)cc1
118 to 119 °C | CS(=O)(=O)c1ccc(C(Cc2ccccc2)C(=O)Nc2nc3ccccc3o2)cc1 (stereo not drawn)
194 to 197 °C | O=c1[nH]c2ncc(-c3ccc(-c4nnc[nH]4)cc3)nc2n1CCN1CCCCC1
96 to 99 °C | COc1cccc([C@@]23CCC[C@@H]2C(=O)N(C)CCC3)c1 (relative stereo)
174 to 182 °C | CC(C)(C#N)Cc1ccc(-c2ccc(CC(C)(C)C#N)cc2)cc1
163 to 165 °C | CCCCOc1ccccc1-c1ncc(C(=O)O)c(=O)[nH]1
119 °C | O=C(c1ccccc1Cl)c1ccccc1Nc1ncccc1[N+](=O)[O-]
230 to 232 °C | Cc1cccc(-c2nc(N)sc2-c2ccnc(-c3ccc(C(=O)NC4CCOCC4)cc3)c2)n1
149 °C | O=C(Nc1nc(C(Cl)(Cl)Cl)ns1)c1ccccc1F
199 to 201 °C | O=C(c1cccs1)c1cnn2c(-c3cccc([N+](=O)[O-])c3)ccnc12

melting point | SMILES
158 °C | COc1cc(O)c(C(=O)C=Cc2cccnc2)c(OC)c1
113 to 115 °C | CCOC(=O)C(=O)c1oc2cc(C)ccc2c1O
132 to 134 °C | CN1CCC(c2cccc3ccc(C(=O)NCCCc4ccc(Cl)cc4)cc23)CC1
96 to 98 °C | CCOC(=O)COc1ccc(Cn2c(-c3ccc(OC4CCCC4)cc3)c(C)c3cc(OCc4ccccc4)ccc32)cc1
183 to 186 °C | COC(=O)c1cc(-c2ccccc2)c(=O)n2c1-c1sccc1S(=O)C2 (stereo not drawn)
232 to 233 °C | Cc1c(S(=O)(=O)N(O)C(=N)Nc2ccc(Cl)c(Cl)c2)sc2ccc(Cl)cc12
245 °C | CS(=O)(=O)c1cccc(NC(=O)c2cnn3c(C(F)(F)F)cc(-c4ccc(OC(F)(F)F)cc4)nc23)c1
153 to 155 °C | NC(=O)c1cccc2c1CC(NCCCc1c[nH]c3ccc(F)cc13)CO2 (stereo not drawn)
192 °C | CCOC(=O)C1=C(C)NC(C)=C(C(=O)OCC(F)(F)F)C1c1cccc([N+](=O)[O-])c1 (stereo not drawn)
101 to 103 °C | CCOC(=O)c1c(-c2ccccc2)cn2ccccc12
182 °C | COc1cccc(OC)c1C1(O)C(=O)Nc2ccc(Cl)cc21 (stereo not drawn)
> 320 °C | O=C1NC(=O)c2c1cc1ccc3c(c1c2-c1ccc2c(c1)OCO2)OCC3
237 to 238 °C | CCCN1C(=O)C2(c3ccc([N+](=O)[O-])cc3)CC(c3ccc([N+](=O)[O-])cc3)(C2)C1=O
150 to 152 °C | O=C(Nc1ccc2c(c1)CCC2)C(=O)N1CCC(Cc2ccc(F)cc2)CC1
277 to 279 °C | COc1cc(OC)c2c(=O)[nH]c(-c3ccc(N(CCO)CCO)cc3)nc2n1
130 to 132 °C | COc1cc(CCNC(=O)[C@@H](NS(C)(=O)=O)C(C)C)ccc1OCC#Cc1ccccc1
46.5 to 50 °C | COC(=O)c1cccc(S(=O)(=O)Cl)c1C
209 to 211 °C | O=C(Nc1c[nH]nc1C(=O)NCCCO)c1ccccn1
161 to 162 °C | CCCSc1ncc(C=C(Cc2cccs2)C(=O)O)n1Cc1ccccc1Cl

melting point | SMILES
184 °C | CNS(=O)(=O)c1c(C)n(C)c2cc(F)ccc2c1=O
149 to 150 °C | COC(=O)CCn1c(=O)n(CCN2CCN(c3ccccc3C)CC2)c(=O)c2cscc21
187 to 188 °C | COc1ccc(-c2nc(S(=O)(=O)c3ccc(Cl)cc3)[nH]c2-c2ccc(OC)cc2)cc1
191 °C | O=c1ncc(Cl)cn1CSc1ccc(Cl)cc1
124 to 125 °C | C[C@@H](N1CC(=O)N(c2ccc(F)cc2F)C1=O)[C@@]1(c2ccc(F)cc2F)CO1
165 to 166 °C | O=c1c(O)c(-c2ccoc2)oc2ccccc12
106 to 107 °C | COc1ccc2c(c1)CCC1C2CCC2(C)C1CCC2N(C=O)CCC(C)C (stereo not drawn)
78 to 81 °C | BrCc1ccc(-c2ccc3c(c2)OCO3)cc1
196 to 198 °C | COc1ccc(C(=O)N2CCN(c3ccc([N+](=O)[O-])c(C=O)c3)CC2)cc1OC
125 to 127 °C | O=C(Nc1c(Cl)cccc1Cl)N(Cc1ccccc1)CC1(c2ccccc2)CCCC1
267 to 268 °C | CC1CC(=O)NN=C1c1ccc(NC(=O)C2CC2)cc1 (stereo not drawn)
165 to 166 °C | NS(=O)(=O)c1ccc(CCCNCC(O)c2ccccc2)cc1 (stereo not drawn)
210 to 212 °C | CC(=O)Nc1ccc(CC(=S)N2CCOCC2)cc1
104 to 106 °C | CN(C(=O)c1cccc(S(=O)(=O)N(C)c2ccc(S(C)=O)cc2)c1)c1ccc(Cl)cc1F (stereo not drawn)
106 to 109 °C | COc1ccc(C2Cc3[nH]c4ccccc4c3C2)cc1 (stereo not drawn)
146 °C | CNC(=O)n1sc(Cc2ccccc2)nc1=O
56 to 58 °C | CCCCc1ccc(CCCC(=O)O)cc1
93 to 98 °C | CN1CCN(c2cc(Cl)cc3c2c(=O)n(Cc2ccc(Br)cc2)c(=O)n3Cc2ccccc2)CC1
157 to 158 °C | O=C1CCCc2c1c1ccccc1n2Cc1ccccc1
